This passage reports IC50 results from BindingDB's records for doi:10.1016/j.bioorg.2014.07.011 (Shenyang Pharmaceutical University, 2014).

Some results are limits rather than exact numbers.

Experiment in all cases: HTRF kinase assay
Common to all, as to conditions: pH 7; 25 °C

The target of assay [1] is Hepatocyte growth factor receptor (Homo sapiens, UniProt P08581). The method, then:
The c-Met kinase activity was evaluated by homogeneous time-resolved fluorescence (HTRF) assays. In a 384-well plate, 20 µg/mL (Glue, Tyr) 4:1 was added, followed by the addition of 50 µL of 10 mM ATP solution diluted in kinase reaction buffer (50 mM HEPES, pH 7.0, […], and 0.1% NaN3) into each well. Various concentrations of compounds diluted in 10 µL of 1% DMSO (v/v) […]. The reaction was initiated by the addition of purified c-Met kinase diluated in 39 µL of kinase reaction buffer solution. The reaction was incubated for 30 min at 25 °C and stopped by the addition of 5 µL of Streptavidin-XL665 and 5 µL Tk Antibody Cryptate working solution to all of the wells.

Assay [2] deals with T1, Epidermal growth factor receptor [1-973] (Homo sapiens, UniProt P00533).
T1 construct: 1-973

The target of assay [3] is T2, Mast/stem cell growth factor receptor Kit [1-973] (Homo sapiens, UniProt P10721).
T2 construct: 1-973
T2 sequence (P10721 1-973): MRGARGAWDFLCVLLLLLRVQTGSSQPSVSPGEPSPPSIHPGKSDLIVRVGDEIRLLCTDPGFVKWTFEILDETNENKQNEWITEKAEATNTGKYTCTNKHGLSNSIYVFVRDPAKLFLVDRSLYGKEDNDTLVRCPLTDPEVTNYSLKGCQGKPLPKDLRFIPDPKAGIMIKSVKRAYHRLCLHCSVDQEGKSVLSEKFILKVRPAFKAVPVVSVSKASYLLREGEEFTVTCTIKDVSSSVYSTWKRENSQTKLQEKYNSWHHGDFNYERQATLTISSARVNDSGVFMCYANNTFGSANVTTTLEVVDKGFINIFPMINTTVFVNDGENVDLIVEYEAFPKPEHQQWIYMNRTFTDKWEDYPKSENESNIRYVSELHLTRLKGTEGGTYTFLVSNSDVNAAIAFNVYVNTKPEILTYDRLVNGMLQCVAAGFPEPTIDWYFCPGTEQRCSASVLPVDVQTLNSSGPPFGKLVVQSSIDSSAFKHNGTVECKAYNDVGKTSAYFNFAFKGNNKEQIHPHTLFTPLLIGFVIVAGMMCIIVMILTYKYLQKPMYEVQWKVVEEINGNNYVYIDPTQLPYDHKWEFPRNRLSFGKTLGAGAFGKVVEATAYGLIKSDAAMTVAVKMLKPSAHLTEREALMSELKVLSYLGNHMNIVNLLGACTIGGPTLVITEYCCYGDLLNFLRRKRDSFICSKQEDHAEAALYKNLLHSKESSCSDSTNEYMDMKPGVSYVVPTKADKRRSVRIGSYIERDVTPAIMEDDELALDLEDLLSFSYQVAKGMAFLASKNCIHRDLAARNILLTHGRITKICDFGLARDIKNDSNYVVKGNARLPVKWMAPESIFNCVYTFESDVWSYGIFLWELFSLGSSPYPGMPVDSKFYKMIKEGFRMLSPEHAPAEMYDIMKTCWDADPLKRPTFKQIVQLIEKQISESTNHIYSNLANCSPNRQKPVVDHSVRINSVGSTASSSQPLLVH

For assay [4], the target named is Vascular endothelial growth factor receptor 2 (Homo sapiens, UniProt P35968).
Assay [5] has as its target T3, Receptor-type tyrosine-protein kinase FLT3 (Homo sapiens, UniProt P36888).
T3 sequence (P36888 whole entry): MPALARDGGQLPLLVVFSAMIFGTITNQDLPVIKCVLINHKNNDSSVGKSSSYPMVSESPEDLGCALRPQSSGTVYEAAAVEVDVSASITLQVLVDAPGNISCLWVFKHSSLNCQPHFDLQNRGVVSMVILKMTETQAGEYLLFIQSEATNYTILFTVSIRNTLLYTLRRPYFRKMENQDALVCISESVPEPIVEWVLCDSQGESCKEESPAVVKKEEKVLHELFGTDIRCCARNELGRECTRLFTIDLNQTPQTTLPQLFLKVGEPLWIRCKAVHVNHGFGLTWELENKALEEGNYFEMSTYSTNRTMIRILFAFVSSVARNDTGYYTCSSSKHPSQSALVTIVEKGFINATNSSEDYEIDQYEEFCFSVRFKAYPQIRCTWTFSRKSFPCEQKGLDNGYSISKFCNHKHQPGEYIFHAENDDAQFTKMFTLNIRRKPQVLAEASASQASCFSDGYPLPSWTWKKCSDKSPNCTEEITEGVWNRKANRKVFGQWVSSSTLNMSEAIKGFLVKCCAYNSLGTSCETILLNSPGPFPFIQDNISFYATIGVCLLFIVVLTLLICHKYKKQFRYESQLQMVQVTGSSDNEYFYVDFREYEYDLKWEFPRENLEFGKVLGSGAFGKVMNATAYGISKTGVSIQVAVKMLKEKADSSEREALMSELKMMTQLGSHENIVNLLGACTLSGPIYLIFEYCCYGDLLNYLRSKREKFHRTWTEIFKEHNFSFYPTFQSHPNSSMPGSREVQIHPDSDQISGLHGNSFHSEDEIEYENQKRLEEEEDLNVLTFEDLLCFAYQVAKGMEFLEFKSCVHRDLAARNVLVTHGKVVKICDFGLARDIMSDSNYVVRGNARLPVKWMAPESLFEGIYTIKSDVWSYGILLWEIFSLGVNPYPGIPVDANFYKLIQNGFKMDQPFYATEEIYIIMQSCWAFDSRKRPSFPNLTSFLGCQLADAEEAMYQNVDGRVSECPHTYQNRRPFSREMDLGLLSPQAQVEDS

For assay [6], the target named is Macrophage-stimulating protein receptor (Homo sapiens, UniProt Q04912).
Chain of Macrophage-stimulating protein receptor (Q04912 25-304 limits assumed): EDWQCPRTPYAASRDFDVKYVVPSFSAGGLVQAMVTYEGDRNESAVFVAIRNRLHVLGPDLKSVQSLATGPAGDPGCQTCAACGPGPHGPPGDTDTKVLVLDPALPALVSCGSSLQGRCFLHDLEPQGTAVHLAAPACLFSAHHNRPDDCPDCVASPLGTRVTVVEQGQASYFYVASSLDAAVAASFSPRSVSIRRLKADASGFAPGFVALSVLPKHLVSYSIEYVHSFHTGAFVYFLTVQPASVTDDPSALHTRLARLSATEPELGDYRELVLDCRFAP
Chain of Macrophage-stimulating protein receptor (Q04912 310-1400 limits assumed): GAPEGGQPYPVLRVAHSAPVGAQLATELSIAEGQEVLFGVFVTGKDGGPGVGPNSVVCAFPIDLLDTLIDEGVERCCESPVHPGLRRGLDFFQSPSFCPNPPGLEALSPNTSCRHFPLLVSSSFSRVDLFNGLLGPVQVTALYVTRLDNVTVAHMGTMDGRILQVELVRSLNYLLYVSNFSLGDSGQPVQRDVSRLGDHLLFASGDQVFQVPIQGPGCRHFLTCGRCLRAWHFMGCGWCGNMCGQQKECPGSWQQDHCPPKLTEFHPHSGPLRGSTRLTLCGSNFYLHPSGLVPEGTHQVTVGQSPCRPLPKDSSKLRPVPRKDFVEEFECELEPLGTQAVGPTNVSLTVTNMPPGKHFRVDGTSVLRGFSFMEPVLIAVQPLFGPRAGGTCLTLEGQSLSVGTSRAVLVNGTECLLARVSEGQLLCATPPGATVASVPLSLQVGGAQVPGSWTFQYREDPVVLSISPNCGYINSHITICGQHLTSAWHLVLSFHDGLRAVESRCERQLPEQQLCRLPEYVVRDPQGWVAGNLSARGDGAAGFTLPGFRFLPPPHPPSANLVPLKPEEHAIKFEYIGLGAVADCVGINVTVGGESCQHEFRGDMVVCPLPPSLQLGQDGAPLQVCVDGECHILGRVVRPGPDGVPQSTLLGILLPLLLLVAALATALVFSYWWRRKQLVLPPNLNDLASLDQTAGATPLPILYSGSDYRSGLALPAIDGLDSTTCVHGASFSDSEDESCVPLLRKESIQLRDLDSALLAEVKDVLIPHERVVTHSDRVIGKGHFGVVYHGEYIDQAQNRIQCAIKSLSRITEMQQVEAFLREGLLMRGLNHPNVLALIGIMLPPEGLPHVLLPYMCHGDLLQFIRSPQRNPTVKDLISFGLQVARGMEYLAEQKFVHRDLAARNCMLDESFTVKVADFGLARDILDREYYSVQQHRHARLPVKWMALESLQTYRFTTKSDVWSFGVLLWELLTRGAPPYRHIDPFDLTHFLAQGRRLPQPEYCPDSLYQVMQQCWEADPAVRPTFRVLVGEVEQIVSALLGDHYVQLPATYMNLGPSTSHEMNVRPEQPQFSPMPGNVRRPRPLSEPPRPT
Assay [7] deals with T4, Platelet-derived growth factor receptor alpha [1-973] (Homo sapiens, UniProt P16234).
T4 construct: 1-973

The target in assay [8] is Vascular endothelial growth factor receptor 1 (Homo sapiens, UniProt P17948).
Chain of Vascular endothelial growth factor receptor 1 (P17948 whole entry): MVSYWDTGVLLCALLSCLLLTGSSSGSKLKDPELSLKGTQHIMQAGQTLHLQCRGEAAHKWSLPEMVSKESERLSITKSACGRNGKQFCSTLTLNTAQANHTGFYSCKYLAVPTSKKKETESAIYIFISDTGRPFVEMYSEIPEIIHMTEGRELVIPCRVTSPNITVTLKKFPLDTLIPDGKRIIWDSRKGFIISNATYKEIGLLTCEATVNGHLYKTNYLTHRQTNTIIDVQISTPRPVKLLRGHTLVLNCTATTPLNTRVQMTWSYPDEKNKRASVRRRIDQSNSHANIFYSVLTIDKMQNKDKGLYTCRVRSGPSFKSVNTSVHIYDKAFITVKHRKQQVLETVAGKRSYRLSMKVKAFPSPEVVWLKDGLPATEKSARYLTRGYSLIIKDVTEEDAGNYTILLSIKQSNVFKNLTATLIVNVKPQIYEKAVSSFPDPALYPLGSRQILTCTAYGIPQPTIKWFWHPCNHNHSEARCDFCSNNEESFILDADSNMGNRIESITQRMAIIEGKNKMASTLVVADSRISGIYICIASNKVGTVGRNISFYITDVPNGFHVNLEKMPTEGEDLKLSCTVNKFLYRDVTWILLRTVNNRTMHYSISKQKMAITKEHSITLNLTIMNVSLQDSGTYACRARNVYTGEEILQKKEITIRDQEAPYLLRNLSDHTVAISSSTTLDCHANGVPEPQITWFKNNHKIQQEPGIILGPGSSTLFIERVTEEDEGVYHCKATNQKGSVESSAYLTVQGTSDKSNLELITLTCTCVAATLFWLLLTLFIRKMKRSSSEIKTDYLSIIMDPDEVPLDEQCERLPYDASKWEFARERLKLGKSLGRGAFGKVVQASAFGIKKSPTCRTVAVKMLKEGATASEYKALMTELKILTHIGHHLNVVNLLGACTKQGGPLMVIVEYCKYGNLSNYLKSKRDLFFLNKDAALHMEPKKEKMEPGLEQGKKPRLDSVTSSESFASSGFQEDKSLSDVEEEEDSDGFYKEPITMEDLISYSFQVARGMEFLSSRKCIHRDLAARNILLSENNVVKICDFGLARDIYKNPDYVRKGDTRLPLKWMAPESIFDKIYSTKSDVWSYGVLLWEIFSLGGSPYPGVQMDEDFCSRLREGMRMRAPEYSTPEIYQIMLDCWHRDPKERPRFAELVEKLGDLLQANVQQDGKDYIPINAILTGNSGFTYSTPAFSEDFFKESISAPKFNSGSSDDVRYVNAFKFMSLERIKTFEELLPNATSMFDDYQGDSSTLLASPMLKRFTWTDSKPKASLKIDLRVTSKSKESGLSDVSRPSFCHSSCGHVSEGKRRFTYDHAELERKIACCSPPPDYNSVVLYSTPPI

Chain of Hepatocyte growth factor receptor (P08581 whole entry): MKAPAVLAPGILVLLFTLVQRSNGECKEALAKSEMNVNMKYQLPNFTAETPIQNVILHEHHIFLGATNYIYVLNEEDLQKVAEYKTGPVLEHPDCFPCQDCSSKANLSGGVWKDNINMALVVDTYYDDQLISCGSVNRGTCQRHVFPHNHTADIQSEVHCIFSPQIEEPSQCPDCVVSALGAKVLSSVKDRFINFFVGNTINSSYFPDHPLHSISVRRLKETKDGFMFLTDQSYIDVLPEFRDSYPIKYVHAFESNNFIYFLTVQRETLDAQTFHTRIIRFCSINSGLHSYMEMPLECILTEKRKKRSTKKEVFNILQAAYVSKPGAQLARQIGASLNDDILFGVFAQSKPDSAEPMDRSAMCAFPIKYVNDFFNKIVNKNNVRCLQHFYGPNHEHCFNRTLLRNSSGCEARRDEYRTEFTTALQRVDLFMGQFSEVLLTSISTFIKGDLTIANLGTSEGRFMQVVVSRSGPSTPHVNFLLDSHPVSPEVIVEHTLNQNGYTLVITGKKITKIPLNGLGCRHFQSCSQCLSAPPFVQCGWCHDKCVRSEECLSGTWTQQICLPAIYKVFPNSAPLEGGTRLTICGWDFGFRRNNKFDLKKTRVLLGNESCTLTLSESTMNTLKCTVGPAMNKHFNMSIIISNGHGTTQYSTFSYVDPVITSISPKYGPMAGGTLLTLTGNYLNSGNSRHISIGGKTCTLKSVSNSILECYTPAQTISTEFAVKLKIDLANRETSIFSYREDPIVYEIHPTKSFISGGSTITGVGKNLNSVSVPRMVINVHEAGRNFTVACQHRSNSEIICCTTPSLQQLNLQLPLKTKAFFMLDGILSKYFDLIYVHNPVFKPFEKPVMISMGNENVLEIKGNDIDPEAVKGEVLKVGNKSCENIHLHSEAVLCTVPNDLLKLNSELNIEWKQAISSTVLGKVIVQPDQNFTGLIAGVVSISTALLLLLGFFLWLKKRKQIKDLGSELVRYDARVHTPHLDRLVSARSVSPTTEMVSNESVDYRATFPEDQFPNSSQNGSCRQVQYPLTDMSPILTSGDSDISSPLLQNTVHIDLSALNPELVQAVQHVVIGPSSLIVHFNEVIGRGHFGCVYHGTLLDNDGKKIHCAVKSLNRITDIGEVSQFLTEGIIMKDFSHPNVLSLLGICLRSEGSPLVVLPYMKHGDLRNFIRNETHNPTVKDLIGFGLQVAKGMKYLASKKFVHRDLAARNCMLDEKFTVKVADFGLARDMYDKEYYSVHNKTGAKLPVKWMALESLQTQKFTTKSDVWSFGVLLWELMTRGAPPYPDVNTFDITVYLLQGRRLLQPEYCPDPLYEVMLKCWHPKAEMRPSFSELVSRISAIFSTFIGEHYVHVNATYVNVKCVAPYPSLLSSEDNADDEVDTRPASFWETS

As usually defined, the IC50 is the concentration needed to halve the response being measured. A lower IC50 goes with higher potency. `COc1cc2c(Oc3ccc(N=Cc4c(O)n(-c5ccccc5C(F)(F)F)c(=O)n4C)cc3F)ccnc2cc1OCCCN1CCCC1` [(E)-5-(((3-fluoro-4-((6-methoxy-7-(3-(pyrrolidin-1-yl)propoxy)quinolin-4-yl)oxy)phenyl)amino)methylene)-1-methyl-3-(2-(trifluoromethyl)phenyl)imidazolidine-2,4-dione (38)] returned an IC50 in assay [1] of 2.75 nM.
Same read-out and setting: the figure for `COc1cc2c(Oc3ccc(N=Cc4c(O)n(-c5ccccc5F)c(=O)n4C)cc3F)ccnc2cc1OCCCN1CCOCC1` [(E)-5-(((3-fluoro-4-((6-methoxy-7-(3-morpholinopropoxy)quinolin-4-yl)oxy)phenyl)amino)methylene)-3-(2-fluorophenyl)-1-methylimidazolidine-2,4-dione (40)] is 8.78 nM.
Same read-out and setting: the figure for `COc1cc2c(Oc3ccc(N=Cc4c(C)[nH]n(-c5ccccc5C(F)(F)F)c4=O)cc3F)ccnc2cc1OCCCN1CCCCC1` [(Z)-4-(((3-fluoro-4-((6-methoxy-7-(3-(piperidin-1-yl)propoxy)quinolin-4-yl)oxy)phenyl)amino)methylene)-3-methyl-1-(2-(trifluoromethyl)phenyl)-1H-pyrazol-5(4H)-one (21)] is 6.63 nM; for `COc1cc2c(Oc3ccc(N=Cc4c(C)[nH]n(-c5ccccc5C(F)(F)F)c4=O)cc3F)ccnc2cc1OCCCN1CCCC1` [(Z)-4-(((3-fluoro-4-((6-methoxy-7-(3-(pyrrolidin-1-yl)propoxy)quinolin-4-yl)oxy)phenyl)amino)methylene)-3-methyl-1-(2-(trifluoromethyl)phenyl)-1H-pyrazol-5(4H)-one (13)] it is 5.04 nM.
As for `COc1cc2c(Oc3ccc(N=Cc4c(C)[nH]n(-c5ccccc5C(F)(F)F)c4=O)cc3F)ccnc2cc1OCCCN1CCOCC1` [(Z)-4-(((3-fluoro-4-((6-methoxy-7-(3-morpholinopropoxy)quinolin-4-yl)oxy)phenyl)amino)methylene)-3-methyl-1-(2-(trifluoromethyl)phenyl)-1H-pyrazol-5(4H)-one (17)], the half-inhibitory concentration (IC50) in assay [1] is 2.2 nM; in assay [2], greater than 10000 nM; in assay [3], 2.3 nM; in assay [4] it was 326 nM; in assay [5], 8.38 nM; in assay [6], 4.24 nM. In addition, the IC50 amounted to 32.2 nM in assay [7] and 8.56 nM in assay [8].
